Results reported in patent US5102786A, “Biological diagnostic assay system” (PB Diagnostic Systems, Inc., priority 1987, dated 1992).

Columns and labels:
B-phycoerythrin = assay: Fluorescent emission of B-phycoerythrin as a function of PNS and ANS; conditions: for effect on fluorescence emission of B-phycoerythrin in solution (in words): 0.125-0.50% agent
Procedure: (§1) The fluorescent emissions of B- and R-phycoerythrin were studied as a function of PNS and 8-anilino-1-naphthalene sulfonic acid (ANS). The experiments were conducted with solutions of the phycoerythrin (1.7×10^-10 M) in HEPES buffer containing varying amounts of PNS and ANS. The phycoerythrins were excited at 560 nm and their emissions measured at 575 nm.

R-phycoerythrin = assay: Fluorescent emission of R-phycoerythrin as a function of PNS and ANS; conditions: for effect on fluorescence emission of R-phycoerythrin in solution (in words): 0.125-0.50% agent
Procedure: as §1

[1] = Solubility of PNS in water; type: physicochemical
[2] = target: Human Serum Albumin (HSA) (Homo sapiens, UniProt P02768); assay: Displacement of sulforhodamine 101 from human serum albumin (Centricon 30 filtration, absorbance 586 nm); type: binding; conditions: 0.2% PNS
Chain of Human Serum Albumin (HSA) (P02768 25-609): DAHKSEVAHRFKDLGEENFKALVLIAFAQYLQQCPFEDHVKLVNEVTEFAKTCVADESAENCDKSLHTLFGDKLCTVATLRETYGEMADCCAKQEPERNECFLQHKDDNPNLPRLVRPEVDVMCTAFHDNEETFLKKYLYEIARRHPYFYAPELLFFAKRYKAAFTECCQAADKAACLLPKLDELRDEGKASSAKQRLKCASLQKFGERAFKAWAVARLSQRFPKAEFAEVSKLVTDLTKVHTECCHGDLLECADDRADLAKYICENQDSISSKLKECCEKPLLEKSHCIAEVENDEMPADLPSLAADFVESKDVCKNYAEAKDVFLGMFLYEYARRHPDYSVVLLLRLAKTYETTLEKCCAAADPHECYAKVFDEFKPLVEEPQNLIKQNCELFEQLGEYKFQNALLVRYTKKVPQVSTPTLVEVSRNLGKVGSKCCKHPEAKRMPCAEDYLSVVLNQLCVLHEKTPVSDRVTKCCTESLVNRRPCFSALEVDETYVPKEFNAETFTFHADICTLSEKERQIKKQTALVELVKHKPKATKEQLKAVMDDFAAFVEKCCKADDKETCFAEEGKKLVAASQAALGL
Procedure: Two sets of aqueous solutions, 1.05×10^-5 M in sulforhodamine 101, were prepared in HEPES buffer with varying amounts of HSA.

plasma proteins [3] = assay: Displacement of phenobarbital from plasma protein (filtration through Centricon PM 10, scintillation counting)
plasma proteins [4] = target: T1, plasma proteins (Homo sapiens, UniProt P02768); assay: in vitro; type: binding
T1 construct: Experiments were conducted with a set of plasma solutions in HEPES buffer; from tissue; host or cells: plasma
T1 sequence (P02768 25-609): as above
Procedure: Experiments were conducted with a set of plasma solutions in HEPES buffer containing ^14 C-labeled phenytoin (9.3×10^-5 M) and varying amounts of PNS.

HSA [5] = target: T2, HSA (Homo sapiens, UniProt P02768); assay: Displacement of a fluorescein-theophylline conjugate from HSA (Centricon 30 filtration, 490 nm); type: binding; parameters: CONJUGATE (free conjugate in filtrate): unit not given here; conditions: 0.2% PNS
T2 sequence (P02768 25-609): as above
Procedure: (§2) Experiments were carried out with fluorescein and a fluorescein-theophylline conjugate, respectively, dissolved in HEPES buffer and containing various amounts of HSA. […] The solutions were centrifuged through a Centricon 30 filter at 5000 g and the filtrates were scanned at 490 nm.

plasma proteins [6] = assay: Displacement of a theophylline-rhodamine conjugate from plasma proteins (Centricon 30 filtration, 500-600 nm); type: binding, human; conditions: 0.2% PNS
Text: The solutions were centrifuged through a Centricon 30 filter at 5000 g and the filtrates were scanned on a Perkin Elmer λ9 Spectrophotometer at 500-600 nm.

HSA [7] = target: T2, HSA; assay: Displacement of fluorescein from HSA (Centricon 30 filtration, 490 nm)
Procedure: as §2

[8] = 0.125% PNS or ANS, excited at 560 nm, emission 575 nm, HEPES buffer

With `O=S(=O)(O)c1cccc2cccc(Nc3ccccc3)c12` [ANS, 8-anilino-1-naphthalene sulfonic acid, reference compound] as the compound, how does the “B-phycoerythrin rel. fl. intensity in the presence of PNS or ANS” value (from here on “B-phycoerythrin rel. fl. intensity”) (B-phycoerythrin; [8]) read?
The value was 0.61.

And the “effect on fluorescence emission of B-phycoerythrin in solution (in words)” value (B-phycoerythrin)?
Its value is “quenches the emissions of both phycoerythrins very strongly”.

What about the “B-phycoerythrin rel. fl. intensity” value (B-phycoerythrin; 0.25% PNS or ANS) of the same compound?
The value was 0.43.

And the “B-phycoerythrin rel. fl. intensity” value (B-phycoerythrin; 0.375% PNS or ANS)?
The value was 0.33.

What about the “B-phycoerythrin rel. fl. intensity” value (B-phycoerythrin; 0.50% PNS or ANS) of the same compound?
The value was 0.25.

And the “R-phycoerythrin rel. fl. intensity in the presence of PNS or ANS” value (“R-phycoerythrin rel. fl. intensity” below) (R-phycoerythrin; [8])?
The value was 0.72.

What about the “effect on fluorescence emission of R-phycoerythrin in solution (in words)” value (R-phycoerythrin) of the same compound?
Its value is “quenches the emissions of both phycoerythrins very strongly”.

And the “R-phycoerythrin rel. fl. intensity” value (R-phycoerythrin; 0.25% PNS or ANS)?
Its value is 0.54.

What about the “R-phycoerythrin rel. fl. intensity” value (R-phycoerythrin; 0.375% PNS or ANS) of the same compound?
The value was 0.40.

And the “R-phycoerythrin rel. fl. intensity” value (R-phycoerythrin; 0.50% PNS or ANS)?
The value was 0.29.

For `O=S(=O)(O)c1cccc2cccc(Oc3ccccc3)c12` [PNS, 1-phenoxynaphthalene-8-sulfonic acid], which “B-phycoerythrin rel. fl. intensity” value (B-phycoerythrin; [8]) is on record?
Its value is 1.0.

What about the “effect on fluorescence emission of B-phycoerythrin in solution (in words)” value (B-phycoerythrin) of the same compound?
Its value is “does not affect the fluorescence emissions”.

What about the “B-phycoerythrin rel. fl. intensity” value (B-phycoerythrin; 0.25% PNS or ANS) of the same compound?
Its value is 1.0.

What about the “B-phycoerythrin rel. fl. intensity” value (B-phycoerythrin; 0.375% PNS or ANS) of the same compound?
Its value is 1.0.

What about the “B-phycoerythrin rel. fl. intensity” value (B-phycoerythrin; 0.50% PNS or ANS) of the same compound?
Its value is 1.0.

What about the solubility in water ([1]; pH range of interest (above 3, preferably 6 to 8)) of the same compound?
The solubility in water was “soluble in water at the required concentrations”.

What about the solubility in water ([1]; very low pH, below pH 3) of the same compound?
Its solubility in water is “precipitate from solution”.

And the “providing free sulforhodamine 101 (in words)” value [2]?
The value was “very effective in providing free sulforhodamine 101”.

What about the “% SULFORHODAMINE 101 (PASSED THROUGH FILTER)” value ([2]; 0% HSA) of the same compound?
Its value is 100%.

And the “% SULFORHODAMINE 101 (PASSED THROUGH FILTER)” value ([2]; 0.032% HSA)?
Its value is 99%.

What about the “% SULFORHODAMINE 101 (PASSED THROUGH FILTER)” value ([2]; 0.064% HSA) of the same compound?
The value was 94%.

What about the “% SULFORHODAMINE 101 (PASSED THROUGH FILTER)” value ([2]; 0.13% HSA) of the same compound?
The value was 88%.

What about the “% SULFORHODAMINE 101 (PASSED THROUGH FILTER)” value ([2]; 0.16% HSA) of the same compound?
Its value is 83%.

And the “% SULFORHODAMINE 101 (PASSED THROUGH FILTER)” value ([2]; 0.32% HSA)?
Its value is 68%.

What about the “% SULFORHODAMINE 101 (PASSED THROUGH FILTER)” value ([2]; 0.48% HSA) of the same compound?
Its value is 61%.

What about the “R-phycoerythrin rel. fl. intensity” value (R-phycoerythrin; [8]) of the same compound?
The value was 1.0.

What about the “effect on fluorescence emission of R-phycoerythrin in solution (in words)” value (R-phycoerythrin) of the same compound?
The value was “does not affect the fluorescence emissions”.

What about the “R-phycoerythrin rel. fl. intensity” value (R-phycoerythrin; 0.25% PNS or ANS) of the same compound?
Its value is 0.99.

And the “R-phycoerythrin rel. fl. intensity” value (R-phycoerythrin; 0.375% PNS or ANS)?
Its value is 0.99.

And the “R-phycoerythrin rel. fl. intensity” value (R-phycoerythrin; 0.50% PNS or ANS)?
Its value is 0.98.

What about the “% PHENOBARBITAL (±3%) (passed through filter)” value (shortened to “% PHENOBARBITAL (±3%)”) (plasma proteins [3]; 0.02% PNS in human plasma) of the same compound?
The value was 62.7%.

And the “% PHENOBARBITAL (±3%)” value (plasma proteins [3]; 0.05% PNS in human plasma)?
Its value is 71.1%.

And the “% PHENOBARBITAL (±3%)” value (plasma proteins [3]; 0.2% PNS in human plasma)?
The value was 93.0%.

And the “% PHENOBARBITAL (±3%)” value (plasma proteins [3]; 0.5% PNS in human plasma)?
The value was 97.0%.

And the “dissociation of phenobarbital from plasma proteins (in words)” value (plasma proteins [3]; human, plasma)?
Its value is “effective to dissociate phenobarbital from the plasma proteins”.

What about the “% Phenytoin (±3) passed through filter” value (plasma proteins [4]; 0.1% PNS) of the same compound?
The value was 97.5%.

What about the “providing free phenytoin (in words)” value (plasma proteins [4]; 0.1-0.5% PNS) of the same compound?
Its value is “very effective in providing free phenytoin”.

And the “% Phenytoin (±3) passed through filter” value (plasma proteins [4]; 0.2% PNS)?
Its value is 98.6%.

What about the “% Phenytoin (±3) passed through filter” value (plasma proteins [4]; 0.3% PNS) of the same compound?
The value was 98.7%.

And the “% Phenytoin (±3) passed through filter” value (plasma proteins [4]; 0.4% PNS)?
Its value is 98.6%.

And the “% Phenytoin (±3) passed through filter” value (plasma proteins [4]; 0.5% PNS)?
The value was 96.7%.

And the “providing free conjugate (in words)” value (HSA [5])?
The value was “effective in providing free dye and free conjugate”.

And the “CONJUGATE (free conjugate in filtrate)” value (HSA [5]; 0% HSA)?
Its value is 100.

What about the “CONJUGATE (free conjugate in filtrate)” value (HSA [5]; 0.075% HSA) of the same compound?
Its value is 93.

And the “CONJUGATE (free conjugate in filtrate)” value (HSA [5]; 0.15% HSA)?
Its value is 87.

What about the “CONJUGATE (free conjugate in filtrate)” value (HSA [5]; 0.3% HSA) of the same compound?
Its value is 87.

And the “CONJUGATE (free conjugate in filtrate)” value (HSA [5]; 0.6% HSA)?
The value was 82.

What about the “CONJUGATE (free conjugate in filtrate)” value (HSA [5]; 0.9% HSA) of the same compound?
Its value is 76.

What about the “CONJUGATE (free conjugate in filtrate)” value (HSA [5]; 1.2% HSA) of the same compound?
Its value is 72.

What about the “CONJUGATE (free conjugate in filtrate)” value (HSA [5]; 1.5% HSA) of the same compound?
Its value is 69.

And the “% CONJUGATE (free conjugate in the filtrate)” value (plasma proteins [6]; 0% plasma)?
Its value is 100%.

And the “% CONJUGATE (free conjugate in the filtrate)” value (plasma proteins [6]; 20% plasma)?
The value was 94%.

And the “% CONJUGATE (free conjugate in the filtrate)” value (plasma proteins [6]; 40% plasma)?
Its value is 88%.

What about the “% CONJUGATE (free conjugate in the filtrate)” value (plasma proteins [6]; 60% plasma) of the same compound?
The value was 87%.

What about the “% CONJUGATE (free conjugate in the filtrate)” value (plasma proteins [6]; 75% plasma) of the same compound?
Its value is 89%.

And the “% CONJUGATE (free conjugate in the filtrate)” value (plasma proteins [6]; 90% plasma)?
The value was 88%.

And the “providing free conjugate (in words)” value (plasma proteins [6]; human plasma)?
The value was “very effective in providing free conjugate”.

And the “providing free dye (in words)” value (HSA [7]; 0.2% PNS)?
The value was “effective in providing free dye and free conjugate”.

And the “DYE (free dye in filtrate)” value (HSA [7]; 0.2% PNS, 0% HSA)?
Its value is 100.

What about the “DYE (free dye in filtrate)” value (HSA [7]; 0.2% PNS, 0.075% HSA) of the same compound?
The value was 99.

And the “DYE (free dye in filtrate)” value (HSA [7]; 0.2% PNS, 0.15% HSA)?
The value was 97.

What about the “DYE (free dye in filtrate)” value (HSA [7]; 0.2% PNS, 0.3% HSA) of the same compound?
Its value is 98.

And the “DYE (free dye in filtrate)” value (HSA [7]; 0.2% PNS, 0.6% HSA)?
Its value is 93.

What about the “DYE (free dye in filtrate)” value (HSA [7]; 0.2% PNS, 0.9% HSA) of the same compound?
The value was 92.

What about the “DYE (free dye in filtrate)” value (HSA [7]; 0.2% PNS, 1.2% HSA) of the same compound?
Its value is 89.

And the “DYE (free dye in filtrate)” value (HSA [7]; 0.2% PNS, 1.5% HSA)?
The value was 88.

Which “DYE (free dye in filtrate)” value (HSA [7]; CONTROL (no PNS), 0% HSA, HEPES buffer) does the source give for `O=C1OC2(c3ccc(O)cc3Oc3cc(O)ccc32)c2ccccc21` [fluorescein, reference compound] here?
The value was 100.

What about the “DYE (free dye in filtrate)” value (HSA [7]; CONTROL (no PNS), 0.075% HSA) of the same compound?
The value was 83.

What about the “DYE (free dye in filtrate)” value (HSA [7]; CONTROL (no PNS), 0.15% HSA) of the same compound?
The value was 69.

And the “DYE (free dye in filtrate)” value (HSA [7]; CONTROL (no PNS), 0.3% HSA)?
Its value is 52.

What about the “DYE (free dye in filtrate)” value (HSA [7]; CONTROL (no PNS), 0.5% HSA) of the same compound?
Its value is 40.

And the “DYE (free dye in filtrate)” value (HSA [7]; CONTROL (no PNS), 0.6% HSA)?
The value was 35.

And the “DYE (free dye in filtrate)” value (HSA [7]; CONTROL (no PNS), 1.0% HSA)?
The value was 24.

And the “DYE (free dye in filtrate)” value (HSA [7]; CONTROL (no PNS), 1.2% HSA)?
The value was 20.

What about the “DYE (free dye in filtrate)” value (HSA [7]; CONTROL (no PNS), 1.5% HSA) of the same compound?
The value was 17.
